The text below walks through data of patent publication US20110130365A1, “Fluorinated Heteroaryls” (priority 2008, published 2011).

The target of this test is T1, Full-length glucokinase (beta cell isoform) (Homo sapiens, UniProt P35557).
T1 construct: Full-length glucokinase (beta cell isoform) was His-tagged at N-terminus; His tag (N); made in house
T1 sequence (P35557 1-465): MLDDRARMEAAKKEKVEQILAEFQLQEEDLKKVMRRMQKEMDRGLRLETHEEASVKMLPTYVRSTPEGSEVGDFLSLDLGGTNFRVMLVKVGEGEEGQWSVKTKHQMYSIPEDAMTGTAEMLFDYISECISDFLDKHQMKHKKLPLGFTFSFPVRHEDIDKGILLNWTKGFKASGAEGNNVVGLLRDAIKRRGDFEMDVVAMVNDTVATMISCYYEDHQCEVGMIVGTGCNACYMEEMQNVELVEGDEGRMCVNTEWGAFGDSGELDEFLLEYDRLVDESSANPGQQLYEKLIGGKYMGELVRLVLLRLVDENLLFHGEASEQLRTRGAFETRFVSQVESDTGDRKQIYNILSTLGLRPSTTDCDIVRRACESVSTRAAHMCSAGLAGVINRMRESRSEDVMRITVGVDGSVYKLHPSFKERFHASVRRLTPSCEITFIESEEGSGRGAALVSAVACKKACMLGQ
Description: Glucokinase activation assay (PK/LDH-coupled, NADH depletion at 340 nm). To be noted: 5 mM glucose, 2.5 mM ATP, pH 7.1, room temperature, values given as a range where N>1; for Emax: fitted % max activation, read-out: Maximum Activation. Type of test: biochemical. The protocol:
Full-length glucokinase (beta cell isoform) was His-tagged at N-terminus and purified by a Ni column followed by size exclusion chromatography. A 320 mL column was packed in house using Pharmacia Superdex75 preparation grade resin. Glucose was obtained from Calbiochem (San Diego, Calif.) and other reagents were purchased from Sigma (St. Louis, Mo.).
All assays were performed in a Corning 384-well plate using Spectramax PLUS spectrophotometer (Molecular Devices, Sunnyvale, Calif.) at room temperature. The final assay volume was 40 μL. The buffer conditions used in this assay were as follows: 50 mM HEPES, 5 mM glucose, 2.5 mM ATP, 3.5 mM MgCl2, 0.7 mM NADH, 2 mM dithiothreitol, 1 Unit/mL PK/LDH, 0.2 mM phosphoenolpyruvate, and 25 mM KCl. The buffer pH was 7.1. The test compound in DMSO solution was added to the buffer and mixed by a plate shaker for 7.5 minutes. The final concentration of DMSO introduced into the assay was 0.25%.
Glucokinase was added to the buffer mixture to initiate the reaction in the presence and absence of compound. The reaction was monitored by absorbance at 340 nm due to the depletion of NADH. The initial reaction velocity was measured by the slope of a linear time course of 0-300 seconds. The percentage of activation was calculated by the following equation:
% Activation=(Va/Vo−1)×100;
wherein each of Va and Vo is defined as the initial reaction velocity in the presence and absence of the tested compound, respectively.
To determine the EC50 (half maximal effective concentration) and % maximum activation, compounds were serially diluted in DMSO by 3-fold. The GK activities were measured as a function of compound concentrations. The data were fitted to the equation below to obtain the EC50 and % max activation values:
Va/Vo=1+(% max activation/100)/(1+EC50/compound concentration)

pEC50: −log10 of the molar value. Counter-ions that a name gives are not always drawn.

The term pEC50 denotes −log10 of the EC50, conventionally taken in molar units.

Turning to `Cc1cnc(NC(=O)[C@H](CC2CCCC2)n2ccc(C(F)(F)F)cc2=O)cn1` [Example 1, (S)-3-cyclopentyl-N-(5-methylpyrazin-2-yl)-2-(2-oxo-4-(trifluoromethyl)pyridin-1(2H)-yl)propanamide], the Emax was in the range of 76 to 100% and the negative logarithm of the EC50 (pEC50) is 4.98 to 5.30.
Consider `Cc1ccc(NC(=O)[C@H](CC2CCCC2)n2cc(C(F)(F)F)ccc2=O)nc1` [Example 6, (S)-3-cyclopentyl-N-(5-methylpyridin-2-yl)-2-(2-oxo-5-(trifluoromethyl)pyridin-1(2H)-yl)propanamide], for which the Emax lay within 88 to 105% and the pEC50 was 6.10 to 6.70.
On to `O=C(O)c1ccc(NC(=O)[C@H](CC2CCCC2)n2ccc(C(F)(F)F)cc2=O)nc1` [Example 34, (S)-6-(3-cyclopentyl-2-(2-oxo-4-(trifluoromethyl)pyridin-1(2H)-yl)propanamido)nicotinic acid], for which the Emax fell in the range of 100 to 102% and the pEC50 was 5.57 to 5.74.
Turning to `O=C(Nc1ccncn1)[C@H](CC1CCCC1)n1cc(C(F)(F)F)ccc1=O` [Example 9, (S)-3-cyclopentyl-2-(2-oxo-5-(trifluoromethyl)pyridin-1(2H)-yl)-N-(pyrimidin-4-yl)propanamide], the Emax was in the range of 95 to 106% and the pEC50 is 5.85 to 5.96.
On to `O=C(Nc1ncccn1)[C@H](CC1CCCC1)n1cc(C(F)(F)F)ccc1=O` [Example 12, (S)-3-cyclopentyl-2-(2-oxo-5-(trifluoromethyl)pyridin-1(2H)-yl)-N-(pyrimidin-2-yl)propanamide], for which the Emax lay in the range of 109 to 110% and the pEC50 was 4.68 to 4.87.
For the molecule `Cn1ccc(NC(=O)[C@H](CC2CCCC2)n2cc(C(F)(F)F)ccc2=O)n1` [Example 16, (S)-3-cyclopentyl-N-(1-methyl-1H-pyrazol-3-yl)-2-(2-oxo-5-(trifluoromethyl)pyridin-1(2H)-yl)propanamide], the Emax came to 125% and the pEC50 was 5.60.
As for `Cc1cnc(NC(=O)[C@H](CC2CCCC2)n2cnc(C(F)(F)F)cc2=O)cn1` [Example 22, (S)-3-cyclopentyl-N-(5-methylpyrazin-2-yl)-2-(6-oxo-4-(trifluoromethyl)pyrimidin-1(6H)-yl)propanamide], the Emax is 130% and the pEC50 was 4.69.
On the same counts, the results for `Cc1ccc(NC(=O)[C@H](CC2CCCC2)n2ccc(C(F)(F)F)cc2=O)nc1` [Example 3, (S)-3-cyclopentyl-N-(5-methylpyridin-2-yl)-2-(2-oxo-4-(trifluoromethyl)pyridin-1(2H)-yl)propanamide] are 55 to 79% and 5.60 to 6.00.
Take `O=C(O)c1ccc(NC(=O)[C@H](CC2CCCCC2)n2ccc(C(F)(F)F)cc2=O)nc1` [Example 37, (S)-6-(3-cyclohexyl-2-(2-oxo-4-(trifluoromethyl)pyridin-1(2H)-yl)propanamido)nicotinic acid]: the Emax lay in the range of 92 to 101% and the negative logarithm of the EC50 (pEC50) was 5.46 to 5.82.
For `CCOP(=O)(Cc1cnc(NC(=O)[C@H](CC2CCCC2)n2cc(C(F)(F)F)ccc2=O)cn1)OCC` [Example 29, (S)-diethyl (5-(3-cyclopentyl-2-(2-oxo-5-(trifluoromethyl)pyridin-1(2H)-yl)propanamido)-pyrazin-2-yl)methylphosphonate] the same measures were 141% and 5.24.
On the same counts, the results for `CC(C)(O)Cn1ccc(NC(=O)[C@H](CC2CCCC2)n2cc(C(F)(F)F)ccc2=O)n1` [Example 31, (S)-3-cyclopentyl-N-(1-(2-hydroxy-2-methylpropyl)-1H-pyrazol-3-yl)-2-(2-oxo-5-(trifluoromethyl)pyridin-1(2H)-yl)propanamide] are 172 to 194% and 5.70 to 5.96.
On the same counts, the results for `Cc1ccc(NC(=O)[C@H](CC2CCCC2)n2cccc(C(F)(F)F)c2=O)nc1` [Example 2, (S)-3-cyclopentyl-N-(5-methylpyridin-2-yl)-2-(2-oxo-3-(trifluoromethyl)pyridin-1(2H)-yl)propanamide] are 0% and less than 4.00.
Consider `COC(=O)c1ccc(NC(=O)[C@H](CC2CCCC2)n2cc(C(F)(F)F)ccc2=O)nc1` [Example 27, (S)-methyl 6-(3-cyclopentyl-2-(2-oxo-5-(trifluoromethyl)pyridin-1(2H)-yl)propanamido)nicotinate], for which the Emax came out at 84% and the pEC50 is 6.70.
As to `O=C(Nc1ccc(C(F)(F)F)cn1)[C@H](CC1CCCC1)n1cc(C(F)(F)F)ccc1=O` [Example 17, (S)-3-cyclopentyl-2-(2-oxo-5-(trifluoromethyl)pyridin-1(2H)-yl)-N-(5-(trifluoromethyl)pyridin-2-yl)propanamide], the Emax is 57% and the pEC50 was 6.40.
For `Cn1ccc(NC(=O)[C@H](CC2CCOCC2)n2cc(C(F)(F)F)ccc2=O)n1` [Example 40, (S)—N-(1-methyl-1H-pyrazol-3-yl)-2-(2-oxo-5-(trifluoromethyl)pyridin-1(2H)-yl)-3-(tetrahydro-2H-pyran-4-yl)propanamide] the same measures were 121% and 4.27.
Take `COc1cnc(NC(=O)[C@H](CC2CCCC2)n2cc(C(F)(F)F)ccc2=O)cn1` [Example 20, (S)-3-cyclopentyl-N-(5-methoxypyrazin-2-yl)-2-(2-oxo-5-(trifluoromethyl)pyridin-1(2H)-yl)propanamide]: the Emax amounted to 114% and the pEC50 was 5.92.
Consider `Cc1cnc(NC(=O)[C@H](CC2CCOCC2)n2ccc(C(F)(F)F)cc2=O)cn1` [Example 42, (S)—N-(5-methylpyrazin-2-yl)-2-(2-oxo-4-(trifluoromethyl)pyridin-1(2H)-yl)-3-(tetrahydro-2H-pyran-4-yl)propanamide], for which the pEC50 was less than 4.00.
Turning to `O=C(Nc1ccc2ccccc2n1)[C@H](CC1CCCC1)n1cc(C(F)(F)F)ccc1=O` [Example 19, (S)-3-cyclopentyl-2-(2-oxo-5-(trifluoromethyl)pyridin-1(2H)-yl)-N-(quinolin-2-yl)propanamide], the Emax amounted to 89% and the pEC50 was 6.30.
In the case of `Cc1cnc(NC(=O)[C@H](CC2CCCC2)n2cccc(C(F)(F)F)c2=O)cn1` [Example 5, (S)-3-cyclopentyl-N-(5-methylpyrazin-2-yl)-2-(2-oxo-3-(trifluoromethyl)pyridin-1(2H)-yl)propanamide], the Emax worked out at 0% and the pEC50 is less than 4.00.
Consider `O=C(O)c1ccc(NC(=O)[C@H](CC2CCCC2)n2cc(C(F)(F)F)ccc2=O)nc1` [Example 28, (S)-6-(3-cyclopentyl-2-(2-oxo-5-(trifluoromethyl)pyridin-1(2H)-yl)propanamido)nicotinic acid mono acetic acid salt], for which the Emax came out at 147% and the pEC50 was 6.30.
Turning to `Cc1ccc(NC(=O)[C@H](CC2CCCC2)n2cnc(C(F)F)cc2=O)nc1` [Example 36, (S)-3-cyclopentyl-2-(4-(difluoromethyl)-6-oxopyrimidin-1(6H)-yl)-N-(5-methylpyridin-2-yl)propanamide], the Emax was determined as 106% and the pEC50 was 5.09.
Consider `O=C(Nc1ccccn1)[C@H](CC1CCCC1)n1cc(C(F)(F)F)ccc1=O` [Example 21, (S)-3-cyclopentyl-2-(2-oxo-5-(trifluoromethyl)pyridin-1(2H)-yl)-N-(pyridin-2-yl)propanamide], for which the Emax came to 113% and the pEC50 was 6.52.
Take `Cc1cnc(NC(=O)[C@H](CC2CCCC2)n2cnc(C(F)F)cc2=O)cn1` [Example 35, (S)-3-cyclopentyl-2-(4-(difluoromethyl)-6-oxopyrimidin-1(6H)-yl)-N-(5-methylpyrazin-2-yl)propanamide]: the Emax is 144% and the negative logarithm of the EC50 (pEC50) was 4.35.
`Cc1ccc(NC(=O)[C@H](CC2CCOCC2)n2ccc(C(F)(F)F)cc2=O)nc1` [Example 41, (S)—N-(5-methylpyridin-2-yl)-2-(2-oxo-4-(trifluoromethyl)pyridin-1(2H)-yl)-3-(tetrahydro-2H-pyran-4-yl)propanamide]: the negative-log EC50 (pEC50) is less than 4.00.
